Assays:
Flavopiridol [1] = compound: T1, CN1CC[C@H](c2c(O)cc(O)c3c(=O)cc(-c4ccccc4Cl)oc23)[C@H](O)C1 [Flavopiridol]; test: GR value, 72 h; higher = faster growth (1 = untreated, <0 = killing);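 further: breast cancer and non-malignant breast epithelial lines, nine half-log doses, viable cells counted by Hoechst and LIVE/DEAD dye imaging versus time-zero plates and DMSO controls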
THZ1 = compound: CN(C)C/C=C/C(=O)Nc1ccc(C(=O)Nc2cccc(Nc3ncc(Cl)c(-c4c[nH]c5ccccc45)n3)c2)cc1 [THZ1]; test: as above
YKL-5-124 = compound: C=CC(=O)Nc1ccc(C(=O)Nc2[nH]nc3c2CN(C(=O)N[C@H](CN(C)C)c2ccccc2)C3(C)C)cc1 [YKL-5-124]; test: as above
[2] = compound: CC(=O)c1c(C)c2cnc(Nc3ccc(N4CCNCC4)cn3)nc2n(C2CCCC2)c1=O; test: as above
LEE011/Ribociclib = compound: CN(C)C(=O)c1cc2cnc(Nc3ccc(N4CCNCC4)cn3)nc2n1C1CCCC1 [LEE011/Ribociclib]; test: as above
[3] = compound: CO[C@@H](C)Cn1c(=O)n(C)c2cnc3ccc(-c4cncc(C(C)(C)O)c4)cc3c21
Taselisib/GDC0032 = compound: Cc1nc(-c2cn3c(n2)-c2ccc(-c4cnn(C(C)(C)C(N)=O)c4)cc2OCC3)n(C(C)C)n1 [Taselisib/GDC0032]
ABT-737 = compound: CN(C)CC[C@H](CSc1ccccc1)Nc1ccc(S(=O)(=O)NC(=O)c2ccc(N3CCN(Cc4ccccc4-c4ccc(Cl)cc4)CC3)cc2)cc1[N+](=O)[O-] [ABT-737]
Saracatinib/AZD0530 = compound: CN1CCN(CCOc2cc(OC3CCOCC3)c3c(Nc4c(Cl)ccc5c4OCO5)ncnc3c2)CC1 [Saracatinib/AZD0530]
Flavopiridol [4] = compound: T1, Flavopiridol
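Wherever GR50, 72 h is given: breast cancer and non-malignant breast epithelial cell lines, Deep Dye Drop or Dye Drop imaging, nine half-log doses, GR normalized to time-zero plates and DMSO-only controls.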

Cell Line: SUM159
- GR value (Flavopiridol [1]; 0.001 µM): 0.973 GR
- GR value (Flavopiridol [1]; 0.003162 µM): 0.925 GR
- GR value (Flavopiridol [1]; 0.01 µM): 0.941 GR
- GR value (Flavopiridol [1]; 0.03162 µM): 0.885 GR
- GR value (Flavopiridol [1]; 0.1 µM): 0.631 GR
- GR value (Flavopiridol [1]; 0.3162 µM): 0.132 GR
- GR value (Flavopiridol [1]; 1 µM): -0.0516 GR
- GR value (THZ1; 0.0001 µM): 1.01 GR
- GR value (THZ1; 0.0003162 µM): 0.974 GR
- GR value (THZ1; 0.001 µM): 0.974 GR
- GR value (THZ1; 0.003162 µM): 0.963 GR
- GR value (THZ1; 0.01 µM): 0.99 GR
- GR value (THZ1; 0.03162 µM): 0.955 GR
- GR value (THZ1; 0.1 µM): 0.809 GR
- GR value (THZ1; 0.3162 µM): 0.646 GR
- GR value (THZ1; 1 µM): -0.112 GR
- GR value (YKL-5-124; 0.001 µM): 0.554 GR
- GR value (YKL-5-124; 0.003162 µM): 0.292 GR
- GR value (YKL-5-124; 0.01 µM): 0.169 GR
- GR value (YKL-5-124; 0.03162 µM): 0.149 GR
- GR value (YKL-5-124; 0.1 µM): 0.136 GR
- GR value (YKL-5-124; 0.3162 µM): 0.0731 GR
- GR value (YKL-5-124; 1 µM): 0.0819 GR
- GR value (YKL-5-124; 3.162 µM): 0.0501 GR
- GR value (YKL-5-124; 10 µM): -0.146 GR
- GR value ([2]; 0.0003162 µM): 1 GR
- GR value ([2]; 0.001 µM): 0.988 GR
- GR value ([2]; 0.003162 µM): 0.987 GR
- GR value ([2]; 0.01 µM): 0.947 GR
- GR value ([2]; 0.03162 µM): 0.881 GR
- GR value ([2]; 0.1 µM): 0.755 GR
- GR value ([2]; 0.3162 µM): 0.64 GR
- GR value ([2]; 1 µM): 0.574 GR
- GR value ([2]; 3.162 µM): 0.468 GR
- GR value (LEE011/Ribociclib; 0.001 µM): 0.942 GR
- GR value (LEE011/Ribociclib; 0.003162 µM): 0.892 GR
- GR value (LEE011/Ribociclib; 0.01 µM): 0.835 GR
- GR value (LEE011/Ribociclib; 0.03162 µM): 0.814 GR
- GR value (LEE011/Ribociclib; 0.1 µM): 0.786 GR
- GR value (LEE011/Ribociclib; 0.3162 µM): 0.73 GR
- GR value (LEE011/Ribociclib; 1 µM): 0.769 GR
- GR value (LEE011/Ribociclib; 3.162 µM): 0.63 GR
- GR value (LEE011/Ribociclib; 10 µM): 0.449 GR
- GR50, 72 h [3]: 0.00127 µM
- GR50, 72 h (Taselisib/GDC0032): 0.182 µM
- GR50, 72 h (ABT-737): > 10 µM
- GR50, 72 h (Saracatinib/AZD0530): > 10 µM
- GR50, 72 h (Flavopiridol [4]): 0.127 µM

Source: the supplement of paper PMC9663587
